Source: article PMC11345841, “Exploring 2-Sulfonylpyrimidine Warheads as Acrylamide Surrogates for Targeted Covalent Inhibition: A BTK Story” (Journal of Medicinal Chemistry, 2024)
Like-named read-outs stand apart in the source and are kept apart here.

Legend:
Assay in all cases: KINOMEscan ScanTK
Type in all cases: binding
[1] = target: T1, EPHA1 (Homo sapiens, UniProt P21709)
T1 construct: purchased Eurofins DiscoverX KINOMEscan (scanTK)
T1 sequence (P21709 26-976): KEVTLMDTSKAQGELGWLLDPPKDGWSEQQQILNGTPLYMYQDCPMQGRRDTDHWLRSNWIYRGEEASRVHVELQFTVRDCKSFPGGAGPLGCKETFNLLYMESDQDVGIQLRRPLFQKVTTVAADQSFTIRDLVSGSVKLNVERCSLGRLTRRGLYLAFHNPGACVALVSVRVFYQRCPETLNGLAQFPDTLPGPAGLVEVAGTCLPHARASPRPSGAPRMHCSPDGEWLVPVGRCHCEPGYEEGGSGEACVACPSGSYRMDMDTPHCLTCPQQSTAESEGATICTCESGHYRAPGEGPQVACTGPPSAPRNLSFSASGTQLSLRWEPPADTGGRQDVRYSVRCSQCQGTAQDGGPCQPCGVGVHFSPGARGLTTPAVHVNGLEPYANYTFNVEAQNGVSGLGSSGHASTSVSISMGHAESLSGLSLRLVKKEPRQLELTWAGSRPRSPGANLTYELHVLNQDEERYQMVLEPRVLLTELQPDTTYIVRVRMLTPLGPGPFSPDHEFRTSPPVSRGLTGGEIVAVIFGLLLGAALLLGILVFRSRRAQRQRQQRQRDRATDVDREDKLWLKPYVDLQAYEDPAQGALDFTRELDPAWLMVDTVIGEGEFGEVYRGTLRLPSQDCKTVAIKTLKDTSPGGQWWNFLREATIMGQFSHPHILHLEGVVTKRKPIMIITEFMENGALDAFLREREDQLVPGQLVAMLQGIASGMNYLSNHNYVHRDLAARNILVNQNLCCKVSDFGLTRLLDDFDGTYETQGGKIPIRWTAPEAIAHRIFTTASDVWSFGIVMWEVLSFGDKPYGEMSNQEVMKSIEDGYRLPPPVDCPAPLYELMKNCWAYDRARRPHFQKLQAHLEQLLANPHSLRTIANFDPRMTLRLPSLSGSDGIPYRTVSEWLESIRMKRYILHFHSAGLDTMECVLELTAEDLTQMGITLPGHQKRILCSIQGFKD

[2] = target: T2, ERBB2 (Homo sapiens, UniProt P04626); settings: for difference in %Control versus compound Ib at 1 µM / remaining binding at 1 µM: ERBB2
T2 construct: purchased Eurofins DiscoverX KINOMEscan (scanTK)

[3] = target: T3, ERBB3 (Homo sapiens, UniProt P21860); settings: for % of control difference from compound Ib at 1 µM / remaining binding at 1 µM: ERBB3
T3 construct: purchased Eurofins DiscoverX KINOMEscan (scanTK)

[4] = target: T4, FER (Homo sapiens, UniProt P16591)
T4 construct: purchased Eurofins DiscoverX KINOMEscan (scanTK)

[5] = target: T5, FRK (Homo sapiens, UniProt P42685)
T5 construct: purchased Eurofins DiscoverX KINOMEscan (scanTK)

[6] = target: T6, INSR (Homo sapiens, UniProt P06213)
T6 construct: purchased Eurofins DiscoverX KINOMEscan (scanTK)

[7] = target: T7, MET (Homo sapiens, UniProt P08581)
T7 construct: purchased Eurofins DiscoverX KINOMEscan (scanTK)

[8] = target: T8, TXK (Homo sapiens, UniProt P42681)
T8 construct: purchased Eurofins DiscoverX KINOMEscan (scanTK)
T8 sequence (P42681 1-527): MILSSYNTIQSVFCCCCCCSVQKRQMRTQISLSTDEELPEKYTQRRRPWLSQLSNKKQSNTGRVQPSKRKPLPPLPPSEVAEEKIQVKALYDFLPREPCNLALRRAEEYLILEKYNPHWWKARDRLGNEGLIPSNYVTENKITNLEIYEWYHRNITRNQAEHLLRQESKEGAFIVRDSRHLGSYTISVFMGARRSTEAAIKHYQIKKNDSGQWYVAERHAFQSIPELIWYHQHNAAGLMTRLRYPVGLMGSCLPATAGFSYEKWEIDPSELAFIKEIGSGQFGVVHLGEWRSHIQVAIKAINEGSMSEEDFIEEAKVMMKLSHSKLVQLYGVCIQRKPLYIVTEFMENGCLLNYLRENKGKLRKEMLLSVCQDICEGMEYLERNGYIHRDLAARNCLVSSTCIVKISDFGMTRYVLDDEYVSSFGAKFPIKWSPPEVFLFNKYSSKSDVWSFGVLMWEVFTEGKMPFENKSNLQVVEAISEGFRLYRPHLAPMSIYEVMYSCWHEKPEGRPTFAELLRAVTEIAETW

[9] = target: T9, TYRO3 (Homo sapiens, UniProt Q06418)
T9 construct: purchased Eurofins DiscoverX KINOMEscan (scanTK)
T9 sequence (Q06418 41-890): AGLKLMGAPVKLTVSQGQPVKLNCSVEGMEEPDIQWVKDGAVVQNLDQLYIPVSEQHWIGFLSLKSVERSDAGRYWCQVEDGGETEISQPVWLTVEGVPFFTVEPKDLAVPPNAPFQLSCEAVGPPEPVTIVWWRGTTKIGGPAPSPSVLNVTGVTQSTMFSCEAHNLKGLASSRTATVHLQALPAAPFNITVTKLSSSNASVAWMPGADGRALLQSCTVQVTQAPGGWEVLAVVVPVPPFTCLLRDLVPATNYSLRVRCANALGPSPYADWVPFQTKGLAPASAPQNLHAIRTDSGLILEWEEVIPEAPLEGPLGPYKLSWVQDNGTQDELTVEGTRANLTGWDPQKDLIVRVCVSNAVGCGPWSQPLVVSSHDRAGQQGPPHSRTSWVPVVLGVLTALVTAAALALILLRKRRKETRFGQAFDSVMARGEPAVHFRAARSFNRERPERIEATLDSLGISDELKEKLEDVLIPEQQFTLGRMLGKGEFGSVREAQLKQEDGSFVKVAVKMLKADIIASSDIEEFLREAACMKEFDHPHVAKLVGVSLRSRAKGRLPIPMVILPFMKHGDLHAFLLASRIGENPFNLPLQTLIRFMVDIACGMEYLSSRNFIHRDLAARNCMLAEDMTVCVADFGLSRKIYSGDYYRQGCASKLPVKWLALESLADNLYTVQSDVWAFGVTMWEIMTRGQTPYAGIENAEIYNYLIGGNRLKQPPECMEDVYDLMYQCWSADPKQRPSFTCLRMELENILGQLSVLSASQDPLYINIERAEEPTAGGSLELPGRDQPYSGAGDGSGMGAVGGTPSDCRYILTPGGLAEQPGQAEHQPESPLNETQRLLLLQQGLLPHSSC

T4 sequence (P16591 whole entry): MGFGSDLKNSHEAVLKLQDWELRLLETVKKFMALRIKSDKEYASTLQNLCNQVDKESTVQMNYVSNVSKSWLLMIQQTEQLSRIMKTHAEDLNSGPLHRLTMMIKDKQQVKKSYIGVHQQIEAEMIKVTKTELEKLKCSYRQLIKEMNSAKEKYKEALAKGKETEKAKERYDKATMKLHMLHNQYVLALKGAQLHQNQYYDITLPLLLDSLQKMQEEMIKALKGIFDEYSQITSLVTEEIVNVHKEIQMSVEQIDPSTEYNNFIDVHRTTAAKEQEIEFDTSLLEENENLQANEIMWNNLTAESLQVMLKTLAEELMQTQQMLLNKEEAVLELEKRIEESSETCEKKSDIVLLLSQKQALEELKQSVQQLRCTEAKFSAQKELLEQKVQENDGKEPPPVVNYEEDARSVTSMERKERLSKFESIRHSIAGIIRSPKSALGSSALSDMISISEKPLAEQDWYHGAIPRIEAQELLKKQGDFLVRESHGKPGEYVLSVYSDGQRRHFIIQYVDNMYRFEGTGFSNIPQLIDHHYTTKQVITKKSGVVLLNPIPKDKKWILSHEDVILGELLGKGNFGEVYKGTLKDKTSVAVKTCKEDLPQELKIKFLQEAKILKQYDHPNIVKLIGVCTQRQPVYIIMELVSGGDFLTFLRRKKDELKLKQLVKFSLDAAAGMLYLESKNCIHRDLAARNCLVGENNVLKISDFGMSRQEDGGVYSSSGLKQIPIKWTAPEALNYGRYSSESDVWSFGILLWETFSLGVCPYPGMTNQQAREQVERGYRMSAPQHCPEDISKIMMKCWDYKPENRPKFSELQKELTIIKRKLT
T6 sequence (P06213 28-1382): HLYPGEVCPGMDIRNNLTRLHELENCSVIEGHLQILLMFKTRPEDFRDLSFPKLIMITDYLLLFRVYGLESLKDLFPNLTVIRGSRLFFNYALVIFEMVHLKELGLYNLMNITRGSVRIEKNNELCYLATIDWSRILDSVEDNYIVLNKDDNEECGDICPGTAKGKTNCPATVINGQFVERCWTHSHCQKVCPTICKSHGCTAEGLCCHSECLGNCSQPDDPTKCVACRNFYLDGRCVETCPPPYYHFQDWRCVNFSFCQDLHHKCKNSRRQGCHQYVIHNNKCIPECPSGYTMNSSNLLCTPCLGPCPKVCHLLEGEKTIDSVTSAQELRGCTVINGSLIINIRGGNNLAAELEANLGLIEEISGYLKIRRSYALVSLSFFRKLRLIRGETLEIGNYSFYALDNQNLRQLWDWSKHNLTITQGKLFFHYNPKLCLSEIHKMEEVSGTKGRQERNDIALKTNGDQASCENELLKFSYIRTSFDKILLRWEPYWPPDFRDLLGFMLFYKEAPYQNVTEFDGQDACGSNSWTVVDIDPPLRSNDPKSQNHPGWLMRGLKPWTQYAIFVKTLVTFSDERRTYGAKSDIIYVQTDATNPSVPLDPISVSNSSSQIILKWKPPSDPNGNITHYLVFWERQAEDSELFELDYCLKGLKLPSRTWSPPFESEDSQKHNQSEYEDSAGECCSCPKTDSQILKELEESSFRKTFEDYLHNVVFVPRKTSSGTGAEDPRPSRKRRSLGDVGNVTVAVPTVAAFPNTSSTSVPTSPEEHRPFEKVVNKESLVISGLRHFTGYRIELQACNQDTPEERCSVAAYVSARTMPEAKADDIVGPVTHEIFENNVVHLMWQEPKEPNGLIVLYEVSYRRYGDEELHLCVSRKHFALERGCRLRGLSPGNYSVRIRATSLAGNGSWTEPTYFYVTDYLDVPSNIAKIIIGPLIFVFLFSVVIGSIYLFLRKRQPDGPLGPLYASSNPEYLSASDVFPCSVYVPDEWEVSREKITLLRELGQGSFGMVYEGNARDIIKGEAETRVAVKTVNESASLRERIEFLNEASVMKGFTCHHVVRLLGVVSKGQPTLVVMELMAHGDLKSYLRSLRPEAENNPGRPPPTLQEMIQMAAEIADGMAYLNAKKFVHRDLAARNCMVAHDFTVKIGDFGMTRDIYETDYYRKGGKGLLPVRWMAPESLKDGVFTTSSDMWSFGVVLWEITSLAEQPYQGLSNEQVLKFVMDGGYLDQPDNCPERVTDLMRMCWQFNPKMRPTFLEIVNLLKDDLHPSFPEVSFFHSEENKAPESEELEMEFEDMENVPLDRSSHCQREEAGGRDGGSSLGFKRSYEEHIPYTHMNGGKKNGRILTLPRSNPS
T2 sequence (P04626 23-1255): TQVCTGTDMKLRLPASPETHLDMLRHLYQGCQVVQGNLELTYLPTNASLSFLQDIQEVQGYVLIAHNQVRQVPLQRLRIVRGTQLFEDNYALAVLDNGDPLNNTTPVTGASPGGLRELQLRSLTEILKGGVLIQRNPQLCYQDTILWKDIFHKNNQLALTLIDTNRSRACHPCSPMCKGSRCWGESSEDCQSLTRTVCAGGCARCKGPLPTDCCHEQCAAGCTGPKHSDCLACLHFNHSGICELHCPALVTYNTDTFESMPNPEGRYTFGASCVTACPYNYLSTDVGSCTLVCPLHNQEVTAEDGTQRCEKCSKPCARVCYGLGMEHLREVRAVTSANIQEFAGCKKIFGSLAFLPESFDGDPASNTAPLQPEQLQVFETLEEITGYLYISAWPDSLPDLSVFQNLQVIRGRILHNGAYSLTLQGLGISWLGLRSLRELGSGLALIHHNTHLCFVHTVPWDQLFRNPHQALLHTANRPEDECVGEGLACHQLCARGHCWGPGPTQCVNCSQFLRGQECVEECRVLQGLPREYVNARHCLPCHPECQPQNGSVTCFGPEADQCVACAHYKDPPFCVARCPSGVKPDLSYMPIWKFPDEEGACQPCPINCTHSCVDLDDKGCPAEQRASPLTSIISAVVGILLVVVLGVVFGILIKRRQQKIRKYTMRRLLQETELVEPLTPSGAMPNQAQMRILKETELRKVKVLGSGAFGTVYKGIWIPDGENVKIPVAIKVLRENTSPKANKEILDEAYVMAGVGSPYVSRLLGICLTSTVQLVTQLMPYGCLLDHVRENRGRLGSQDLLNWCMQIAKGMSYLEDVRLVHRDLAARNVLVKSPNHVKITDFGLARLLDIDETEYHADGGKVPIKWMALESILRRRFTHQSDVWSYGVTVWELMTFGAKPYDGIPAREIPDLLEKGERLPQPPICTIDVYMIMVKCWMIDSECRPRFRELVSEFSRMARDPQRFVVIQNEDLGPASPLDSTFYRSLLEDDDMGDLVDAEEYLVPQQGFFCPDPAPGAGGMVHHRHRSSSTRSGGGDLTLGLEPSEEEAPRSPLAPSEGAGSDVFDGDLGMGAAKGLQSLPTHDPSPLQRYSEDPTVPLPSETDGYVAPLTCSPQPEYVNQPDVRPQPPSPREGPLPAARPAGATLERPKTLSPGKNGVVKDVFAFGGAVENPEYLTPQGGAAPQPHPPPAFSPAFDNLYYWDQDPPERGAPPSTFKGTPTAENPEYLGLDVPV
T5 sequence (P42685 whole entry): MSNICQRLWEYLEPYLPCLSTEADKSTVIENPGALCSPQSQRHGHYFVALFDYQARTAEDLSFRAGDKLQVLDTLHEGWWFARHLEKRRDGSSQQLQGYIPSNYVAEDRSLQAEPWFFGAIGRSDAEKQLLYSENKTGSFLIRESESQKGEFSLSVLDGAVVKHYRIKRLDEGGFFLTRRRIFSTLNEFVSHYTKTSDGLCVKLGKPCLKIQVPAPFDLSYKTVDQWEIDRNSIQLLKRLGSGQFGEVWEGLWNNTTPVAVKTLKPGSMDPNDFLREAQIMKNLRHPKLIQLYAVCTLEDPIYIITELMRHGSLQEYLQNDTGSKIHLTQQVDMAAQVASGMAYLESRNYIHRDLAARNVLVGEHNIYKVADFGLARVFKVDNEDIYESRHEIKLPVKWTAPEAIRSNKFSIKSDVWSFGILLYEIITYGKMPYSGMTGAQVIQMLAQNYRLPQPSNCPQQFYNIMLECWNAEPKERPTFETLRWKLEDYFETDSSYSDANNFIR

Compound	difference in %Control versus compound Ib at 1 µM ([1]; @1000nM) [%]	remaining binding at 1 µM ([1]; @1000nM, read-out: %Control) [%]	remaining binding at 1 µM ([1]; read-out: %Control @1000nM) [%]	difference in %Control versus compound Ib at 1 µM ([2]; @1000nM) [%]	remaining binding at 1 µM ([2]; @1000nM, read-out: %Control) [%]	remaining binding at 1 µM ([2]; read-out: %Control @1000nM) [%]	remaining binding at 1 µM ([3]; @1000nM, read-out: %Control) [%]	remaining binding at 1 µM ([3]; read-out: %Control @1000nM) [%]	remaining binding at 1 µM ([4]; @1000nM, read-out: %Control) [%]	remaining binding at 1 µM ([4]; read-out: %Control @1000nM) [%]	remaining binding at 1 µM ([5]; @1000nM, read-out: %Control) [%]	remaining binding at 1 µM ([5]; read-out: %Control @1000nM) [%]	remaining binding at 1 µM ([6]; @1000nM, read-out: %Control) [%]	remaining binding at 1 µM ([6]; read-out: %Control @1000nM) [%]	remaining binding at 1 µM ([7]; @1000nM, read-out: %Control) [%]	remaining binding at 1 µM ([7]; read-out: %Control @1000nM) [%]	remaining binding at 1 µM ([8]; @1000nM, read-out: %Control) [%]	remaining binding at 1 µM ([8]; read-out: %Control @1000nM) [%]	remaining binding at 1 µM ([9]; @1000nM, read-out: %Control) [%]	remaining binding at 1 µM ([9]; read-out: %Control @1000nM) [%]	further results
Cc1cnc(S(C)(=O)=O)nc1N1CCCC(n2nc(-c3ccc(Oc4ccccc4)cc3)c3c(N)ncnc32)C1 (centres unmarked) [Compound 8a, 1-(1-(5-Methyl-2-(methylsulfonyl)pyrimidin-4-yl)piperidin-3-yl)-3-(4-phenoxyphenyl)-1H-pyrazolo[3,4-d]pyrimidin-4-amine]	9	81	81	53	53	53	0	0	100	100	48	48	95	95	100	100	14	14	40	40	% of control difference from compound Ib at 1 µM ([3]; @1000nM): 0%; difference in %Control versus compound Ib at 1 µM ([4]; @1000nM): 0%; difference in %Control versus compound Ib at 1 µM ([5]; @1000nM): 38.7%; difference in %Control versus compound Ib at 1 µM ([6]; @1000nM): -5%
CCOC(=O)c1cnc(S(C)(=O)=O)nc1N1CCC[C@@H](n2nc(-c3ccc(Oc4ccccc4)cc3)c3c(N)ncnc32)C1 [Compound 8c, Ethyl (R)-4-(3-(4-Amino-3-(4-phenoxyphenyl)-1H-pyrazolo[3,4-d]pyrimidin-1-yl)piperidin-1-yl)-2-(methylsulfonyl)pyrimidine-5-carboxylate]	20	92	92	48	48	48	39	39	100	100	76	76	100	100	100	100	12	12	40	40	% of control difference from compound Ib at 1 µM ([3]; @1000nM): 39%; difference in %Control versus compound Ib at 1 µM ([4]; @1000nM): 0%; difference in %Control versus compound Ib at 1 µM ([5]; @1000nM): 66.7%; difference in %Control versus compound Ib at 1 µM ([6]; @1000nM): 0%
COC(=O)c1cnc(S(C)(=O)=O)nc1N1CCCC(n2nc(-c3ccc(Oc4ccccc4)cc3)c3c(N)ncnc32)C1 (centres unmarked) [Compound 8b, Methyl 4-(3-(4-Amino-3-(4-phenoxyphenyl)-1H-pyrazolo[3,4-d]pyrimidin-1-yl)piperidin-1-yl)-2-(methylsulfonyl)pyrimidine-5-carboxylate]	-16	56	56	41	41	41	2.3	2.3	90	90	79	79	95	95	100	100	11	11	33	33	% of control difference from compound Ib at 1 µM ([3]; @1000nM): 2.3%; difference in %Control versus compound Ib at 1 µM ([4]; @1000nM): -10%; difference in %Control versus compound Ib at 1 µM ([5]; @1000nM): 69.7%; difference in %Control versus compound Ib at 1 µM ([6]; @1000nM): -5%
CNC(=O)c1cnc(S(C)(=O)=O)nc1N1CCCC(n2nc(-c3ccc(Oc4ccccc4)cc3)c3c(N)ncnc32)C1 (centres unmarked) [Compound 8d, 4-(3-(4-Amino-3-(4-phenoxyphenyl)-1H-pyrazolo[3,4-d]pyrimidin-1-yl)piperidin-1-yl)-N-methyl-2-(methylsulfonyl)pyrimidine-5-carboxamide]	-6	66	66	5.5	5.5	5.5	8.9	8.9	100	100	43	43	100	100	100	100	10	10	32	32	% of control difference from compound Ib at 1 µM ([3]; @1000nM): 8.9%; difference in %Control versus compound Ib at 1 µM ([4]; @1000nM): 0%; difference in %Control versus compound Ib at 1 µM ([5]; @1000nM): 33.7%; difference in %Control versus compound Ib at 1 µM ([6]; @1000nM): 0%
C=CC(=O)N1CCC[C@@H](n2nc(-c3ccc(Oc4ccccc4)cc3)c3c(N)ncnc32)C1 [Compound 1g, Ibrutinib, reference compound]		72	72		0	0	0	0	100	100	9.3	9.3	100	100	100	100	8.7	8.7	34	34	inhibition at 1 µM ([2]; ScanTK, 1 μM): > 99%; inhibition at 1 µM ([3]; read-out: % inhibition, ERBB3): > 99%
